Assays:
HCV replicon = assay: anti-viral assay (EC50), Table 13; format: cell-based; conditions: Hepatitis C virus, anti-viral assays
Excerpt: The ability of a compound to inhibit HCV replication can be measured in vitro or using animal models using models and assays well known to those of skill in the art (e.g. Pietschmann et al, Clin Liver Dis. 7(1)c23-43, 2003). In vitro techniques for measuring the ability of a compound to inhibit HCV replication involve using HCV or an HCV replicon. Because HCV is difficult to grow in culture, particular in vitro techniques employ an HCV replicon.
An HCV replicon is an RNA molecule able to autonomously replicate in a cultured cell, such as Huh7. The HCV replicon expresses the HCV derived components of the replication machinery and contains cis-elements required for replication in a cultured cell. […]

[1] = cytotoxicity measurement (CC50), Table 13; format: cell-based; conditions: human, Huh7 cells
HCV = assay: antiviral profiling, HCV in Huh7 cells (Table 14); format: cell-based; conditions: Hepatitis C virus, Huh-7
CVB-2 = assay: antiviral profiling, CVB-2 in Vero cells (Table 14); format: cell-based, coxsackie B virus
Sb-1 = assay: microbe, parasite or virus in culture; format: cell-based, poliovirus; conditions: Enterovirus C, Vero
YFV = assay: microbe, parasite or virus in culture; format: cell-based; conditions: Yellow fever virus, BHK-21
Influenza = assay: antiviral profiling, Influenza in MDCK cells (Table 14); format: cell-based
RSV = assay: antiviral profiling, RSV in Vero cells (Table 14); format: cell-based; conditions: human respiratory syncytial virus
VSV = assay: microbe, parasite or virus in culture; format: cell-based; conditions: Vesicular stomatitis virus, Vero
HSV-1 = assay: antiviral profiling, HSV-1 in Vero cells (Table 14); format: cell-based; conditions: Human alphaherpesvirus 1; HSV-1, Vero cells
HIV = assay: antiviral profiling, HIV in MT-4 cells (Table 14); format: cell-based; conditions: Human immunodeficiency virus 1, MT4
[2] = cytotoxicity CC50 in Huh7 cells (Table 14); format: cell-based; conditions: human, HCV column
[3] = cytotoxicity CC50 in MT-4 cells (Table 14); format: cell-based; conditions: human, HIV column
HRV-2 = assay: antiviral activity, HRV-2 in HeLa cells (Table 15); format: cell-based, human rhinoviruses (HRV); conditions: Rhinovirus A, HRV2; HRV-2 (HeLa cells)
HRV-14 = assay: antiviral activity, HRV-14 in HeLa cells (Table 15); format: cell-based, human rhinovirus 14 (HRV-14); conditions: Rhinovirus B, HRV14; HRV-14 (HeLa cells)
HRV clinical isolate = assay: antiviral activity, HRV clinical isolate in HeLa cells (Table 15); format: cell-based, human rhinoviruses (HRV); conditions: Enterovirus
[4] = cytotoxicity CC50 in HeLa cells (Table 15); format: cell-based; conditions: human, HRV-2 column
HeLa cells = assay: cytotoxicity CC50 in HeLa cells (Table 15); format: cell-based
in vitro [5] = conditions: African green monkey
in vitro [6] = conditions: Syrian hamster
Vero = assay: cytotoxicity CC50 in Vero cells (Table 14)
[7] = cytotoxicity CC50 in MDCK cells (Table 14); conditions: dog

SMILES: NS(=O)(=O)c1ccc(CNc2nccn3c(-c4ccc(O)cc4)cnc23)cc1 [Compound 1, 4-{[3-(4-Hydroxy-phenyl)-imidazol[1,2-a]pyrazin-8-ylamino]-methyl}-benzenesulfonamide]
- EC50 (HCV replicon): < 1 µM
- CC50 [1]: > 35 µM
- EC50 (HCV): < 1 µM
- EC50 (CVB-2): < 1 µM
- EC50 (Sb-1): < 1 µM
- EC50 (YFV): 1 to 20 µM
- EC50 (Influenza): > 20 µM
- EC50 (RSV): > 20 µM
- EC50 (VSV): > 20 µM
- EC50 (HSV-1): > 20 µM
- EC50 (HIV): 1 to 20 µM
- CC50 [2]: > 35 µM
- CC50 [3]: < 35 µM
- EC50 (HRV-2): < 1 mg/L
- EC50 (HRV-14): < 1 mg/L
- EC50 (HRV clinical isolate): < 1 mg/L
- CC50 [4]: > 35 mg/L
- CC50(μg/mL) (HeLa cells; HRV clinical isolate column): * (>35 μg/mL)
- CC50(μg/mL) (HeLa cells; HRV-14 column): * (>35 μg/mL)
- CC50 (in vitro [5]): > 35 µM
- CC50 (in vitro [5]; Vero cells): > 35 µM
- CC50 (in vitro [6]): < 35 µM
- CC50 (Vero; HSV-1): > 35 µM
- CC50 (Vero; RSV column): > 35 µM
- CC50 (Vero; Sb-1 column): > 35 µM
- CC50 [7]: > 35 µM

Reference: patent US8362018B2, “Substituted imidazo[1,2-a]pyrazine compounds useful for the treatment of viral infections” (Biofocus DPI, Ltd., priority 2007, dated 2013)
